The source of these data is patent US8273773B2 (priority 2008, dated 2012).

Data set [1] has as its system HCV replicon cells (2209-23), genotype 1b replicon. In words: HCV Replicon Assay (Renilla luciferase reporter). The following applies: Hepatitis C virus, 72 h, 2209-23 cells, three days incubation. The class given is cell-based, HCV genotype 1b replicon in human hepatoma Huh7 cells. Background: A replicon is a self-replicating genome or part of one, used to study replication in cells.

In a further data set the test system is HCV. The following applies: monotherapy; cited from earlier work.

For orientation: IC50 means the concentration at which inhibition is half-maximal. High values mean weaker potency, low ones greater potency. One may read the melting point as the temperature of the solid-liquid transition. The molecule `CC1(C)COc2c(-c3cc(F)c[nH]c3=O)cc(/C=C/c3ccc(NS(C)(=O)=O)cc3)cc21` [II-3] yielded a melting point of 264 to 266 °C. This molecule returned an IC50 in data set [1] of 0.0546 µM.

On to `NC(=O)c1ncn([C@@H]2O[C@H](CO)[C@@H](O)[C@H]2O)n1` [ribavirin, 1-((2R,3R,4S,5R)-3,4-Dihydroxy-5-hydroxymethyl-tetrahydro-furan-2-yl)-1H-[1,2,4]triazole-3-carboxylic acid amide], for which, in the data set with HCV, the “patients in whom serum amino transferase levels are reduced to normal” value is 40%.
